Reference: ChEMBL document CHEMBL4350979, “Dehydrodieugenol B derivatives as antiparasitic agents: Synthesis and biological activity against Trypanosoma cruzi” (Eur J Med Chem, 2019)
Active and inactive are the calls of the source. The rule behind the calls is not given here. Square brackets hold non-standard residues; d marks the D form. Peptide text beside a SMILES is read from it. * marks the point of attachment. NHCH2CH2OH = OCCN*; For = O=C*

Columns and labels:
[1] = Cytotoxicity against mouse NCTC-929 cells assessed as reduction in cell viability incubated for 48 hrs by MTT assay; type: cell-based; conditions: NCTC-929 (L929) cells
Trypanosoma cruzi [2] = experiment: Antitrypanosomal activity against Trypanosoma cruzi amastigotes infected in BALB/c mouse peritoneal macrophages assessed as decrease in parasitic load with in the cell incubated for 48 hrs by Giemsa staining based light microscopy; type: functional, organism-based
[3] = Selectivity index, ratio of CC50 for mouse NCTC-929 cells to IC50 for Trypanosoma cruzi amastigotes infected in BA;B/c mouse peritoneal macrophages; type: toxicity; conditions: read-out: Ratio CC50/IC50
Trypanosoma cruzi [4] = experiment: Antitrypanosomal activity against Trypanosoma cruzi strain Y trypomastigotes maintained in Rhesus monkey […] cells assessed as decrease in trypomastigotes cell viability incubated for 24 hrs by resazurin dye based colorimetric assay; type: functional, organism-based
Trypanosoma cruzi [5] = experiment: Induction of plasma membrane electric potential depolarization in Trypanosoma cruzi strain Y trypomastigotes at 0.5 mg/ml measured after 60 mins by DiSBAC2(3) dye based flow cytometry; type: functional
Trypanosoma cruzi [6] = experiment: Induction of mitochondrial membrane depolarization in Trypanosoma cruzi strain Y trypomastigotes assessed as reduction in mitochondrial membrane potential at 50 uM measured after 120 mins by JC-1 probe based flow cytometry; type: functional, organism-based

SMILES | CC50 at 48 h [1] [µM] | IC50 (Trypanosoma cruzi [2]) [µM] | selectivity ratio [3] | IC50 (Trypanosoma cruzi [4]) [µM] | Activity (Trypanosoma cruzi [5]) [%] | inhibition (Trypanosoma cruzi [6])
CCCc1ccc(Oc2cc(CCC)cc(OC)c2OC)c(OC)c1 | > 200 | 13.3 | > 15.4 | > 100 | – | –
CC(C)C[C@@H](NC(=O)[C@H](C)NC(=O)CNC(=O)[C@@H](NC=O)C(C)C)C(=O)N[C@@H](C)C(=O)N[C@@H](C(=O)N[C@H](C(=O)N[C@@H](C(=O)N[C@@H](Cc1c[nH]c2ccccc12)C(=O)N[C@H](CC(C)C)C(=O)N[C@@H](Cc1c[nH]c2ccccc12)C(=O)N[C@H](CC(C)C)C(=O)N[C@@H](Cc1c[nH]c2ccccc12)C(=O)N[C@H](CC(C)C)C(=O)N[C@@H](Cc1c[nH]c2ccccc12)C(=O)NCCO)C(C)C)C(C)C)C(C)C [GRAMICIDIN D] (For-VGA[dL]A[dV]V[dV]W[dL]W[dL]W[dL]W-NHCH2CH2OH) | – | – | – | – | 100 | –
N#CC(C#N)=NNc1cccc(Cl)c1 | – | – | – | – | – | Active
COc1cc(CC(C)O)ccc1Oc1cc(CC(C)O)cc(OC)c1OC (stereo unspecified) | > 200 | > 30 | – | > 100 | – | –
O=C(Cn1ccnc1[N+](=O)[O-])NCc1ccccc1 [BENZNIDAZOLE] | 191 | 5 | 38.1 | 17.7 | – | –
CCCOc1c(OC)cc(CCC)cc1Oc1ccc(CCC)cc1OC | > 200 | > 30 | – | > 100 | – | –
